Source: patent US12213482B2, “Fungicide enhancers effective for treating plants infected with fungal pathogens” (Board of Regents, The University of Texas System, priority 2015, dated 2025)

What was measured:
[1] = system: Mycosphaerella graminicola isolate FLU4-02; experiment: Fungicide sensitivity testing by OD in 96 well plates, epoxiconazole plus enhancers; format: cell-based; details: Zymoseptoria tritici, Enhancer Concentration 0 μg ml^−1 (epoxiconazole alone; one value per enhancer series)
[2] = system: Septoria tritici isolate G3-03; experiment: Fungicide sensitivity testing by OD in 96 well plates, fungicides plus Enhancer A.I.1; format: cell-based
[3] = Enhancer A.I.1 Concentration 0 μg ml^−1
[4] = Enhancer A.I.1 Concentration 0.003 μg ml^−1
[5] = Enhancer A.I.1 Concentration 0.016 μg ml^−1
[6] = Enhancer A.I.1 Concentration 0.08 μg ml^−1
[7] = Enhancer A.I.1 Concentration 0.4 μg ml^−1
[8] = Enhancer A.I.1 Concentration 2.0 μg ml^−1
[9] = Enhancer A.I.1 Concentration 10 μg ml^−1

| Compound | EC50 [1] [µg/mL] | EC50 of the fungicide [2, 3] [µg/mL] | EC50 of the fungicide [2, 4] [µg/mL] | EC50 of the fungicide [2, 5] [µg/mL] | EC50 of the fungicide [2, 6] [µg/mL] | EC50 of the fungicide [2, 7] [µg/mL] | EC50 of the fungicide [2, 8] [µg/mL] | EC50 of the fungicide [2, 9] [µg/mL] |
| --- | --- | --- | --- | --- | --- | --- | --- | --- |
| Fc1ccc([C@]2(Cn3cncn3)O[C@H]2c2ccccc2Cl)cc1 (racemic) [Epoxiconazole] | 0.091 | 0.142 | 0.142 | 0.141 | 0.145 | 0.06 | 0.008 | 0.004 |
| CO/C=C(/C(=O)OC)c1ccccc1Oc1cc(Oc2ccccc2C#N)ncn1 [Azoxystrobin] | – | 7.210 | 7.339 | 7.071 | 6.914 | 6.958 | 5.157 | 2.816 |
| COC(=O)Nc1nc2ccccc2[nH]1 [Carbendazim] | – | >50 | >50 | >50 | >50 | >50 | >50 | >50 |
| N#Cc1c(Cl)c(Cl)c(Cl)c(C#N)c1Cl [Chlorothalonil] | – | 0.370 | 0.369 | 0.357 | 0.369 | 0.335 | 0.36 | 0.364 |
| Cc1cc(C2CC2)nc(Nc2ccccc2)n1 [Cyprodinil] | – | 3.055 | 3.135 | 2.995 | 2.838 | 3.244 | 4.046 | 4.220 |
